# What was measured:
# [1] = test system: HRMEC; test: Endothelial assembly into capillary-like structures (HRMEC); type: cell-based, human; settings: HRMEC on Matrigel, two dimensional in vitro assay, 8 h
# Method: Endothelial assembly into capillary-like structures. Twelve well plates (Falcon) were coated with thin layers of Matrigel. HRMEC were plated at a density of 4×10^4 cells/well in DME containing 1% fetal bovine serum. Indicated agonists, control peptides, alone, or in combination with the EphB1/Fc antagonist (1000 ng ml^−1) (FIG. 5) were added at the time of plating. Cells were incubated at 37° C. for 8 h and photographed using phase microscopy (magnification 100×) (Diaphot-TMD, Nikon).
# [2] = test system: human renal microvascular endothelial cells; test: Solid phase cell attachment assay (HRMEC); type: cell-based
# Method: Solid phase cell attachment assays. Forty-eight-well plates (Falcon) were coated with a layer of nitrocellulose (Schleicher & Schuell) and allowed to air dry as described (47). Coated wells were incubated overnight at 4° C. with PBS containing matrix proteins at the indicated concentrations alone (no addition, NA) or in combination with dimeric EphrinB1/Fc. Two hours prior to assay, wells were washed twice then blocked at 37° C. with 1% BSA. Serum starved cells were harvested in 2 mM EDTA in PBS (HEK293) or recovered by trypsinization (HRMEC), washed twice in serum free medium containing 1% BSA, then plated at a density of 0.7-1×10^5 cells per well. After incubation at 37° C. for 1 hour (or as specified), unattached cells were dislodged by 5 brisk slaps of the plate on a horizontal surface. Wells were gently washed with PBS until cells were […] to albumin-coated wells. Adherent cells were fixed with 2% glutaraldehyde, stained with 0.5% crystal violet (in EtOH), and quantified by OD reading at 570 nm. In experiments using competitive peptides or blocking antibodies, cells were preincubated with the indicated peptides (100 μM) or antibodies (10 μg/ml) for 15 min at RT before plating. Results representative of three independent experiments are given as OD values and represent the mean of duplicate or triplicate wells±SEM. […]
compound,measurement,setting,value
"CCCCCCCCCCCCCC(=O)O[C@@H]1[C@@H](C)[C@@]2(O)[C@@H](C=C(CO)C[C@]3(O)C(=O)C(C)=C[C@@H]23)[C@@H]2C(C)(C)[C@]12OC(C)=O [phorbol myristate acetate, reference compound]",endothelial capillary-like assembly,[1],stimulated
"GRGDSPK [RGD peptide, reference compound]",support of the ephrin-B1 induced increase in endothelial attachment,[2]; peptide-coated 48-well plates,sufficient
fibrinogen [reference compound],threshold surface density of adsorbed matrix protein required to promote attachment,[2]; nitrocellulose surface,approximately 1 ug/cm^2

# Source: patent publication US20030157712A1, “Methods for determining cell responses through EphB receptors” (priority 1997, published 2003)
